In BindingDB's records for doi:10.1021/jm00172a035 (Wyeth-Ayerst Research, 1990):
Where a name gives a salt, the structure may show the parent alone.

Target: Sodium-dependent serotonin transporter (Rattus norvegicus) (UniProt P31652)
Assay: Inhibition of binding of [3H]imipramine to imipramine receptor in rat brain

Chain of Sodium-dependent serotonin transporter (Rattus norvegicus) (P31652 whole entry, looked up): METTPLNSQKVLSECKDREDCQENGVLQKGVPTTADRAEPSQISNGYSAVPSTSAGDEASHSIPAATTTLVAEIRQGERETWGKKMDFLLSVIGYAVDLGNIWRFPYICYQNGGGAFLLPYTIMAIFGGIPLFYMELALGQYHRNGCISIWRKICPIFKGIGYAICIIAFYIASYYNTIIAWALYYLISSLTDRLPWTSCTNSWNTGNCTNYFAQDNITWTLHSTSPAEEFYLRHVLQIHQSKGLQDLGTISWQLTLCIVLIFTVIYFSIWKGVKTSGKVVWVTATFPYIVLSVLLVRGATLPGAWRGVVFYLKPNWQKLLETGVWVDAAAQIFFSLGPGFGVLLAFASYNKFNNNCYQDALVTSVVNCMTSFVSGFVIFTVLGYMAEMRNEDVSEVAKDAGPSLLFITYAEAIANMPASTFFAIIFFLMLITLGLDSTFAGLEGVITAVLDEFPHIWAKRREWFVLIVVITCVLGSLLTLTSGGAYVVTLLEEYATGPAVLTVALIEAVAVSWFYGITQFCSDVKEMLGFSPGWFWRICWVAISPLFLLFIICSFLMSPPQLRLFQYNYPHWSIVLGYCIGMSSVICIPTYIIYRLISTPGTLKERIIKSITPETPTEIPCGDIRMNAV

| IC50 [nM] | SMILES |
| --- | --- |
| 130 | CN(C)CC(c1cccc(Cl)c1)C1(O)CCCCC1 (stereo not given) |
| > 10000 | CN(C)CC(c1ccccc1O)C1(O)CCCCC1 (stereo not given) |
| 126 | COc1ccc(C(CN(C)C)C2(O)CCCC2)cc1 (stereo not given) |
| 300 | COc1ccc(C(CN(C)C)C2(O)CCCCCC2)cc1 (stereo not given) |
| 250 | CN(C)CC(c1ccc([N+](=O)[O-])cc1)C1(O)CCCCC1 (stereo not given) |
| 95 | COc1cccc(C(CN(C)C)C2(O)CCCC2)c1 (stereo not given) |
| 52 | CN(C)CC(c1cccc(Br)c1)C1(O)CCCCC1 (stereo not given) |
| 37 | CN(C)CC(c1ccc(Cl)c(Cl)c1)C1(O)CCCCC1 (stereo not given) |
| 62 | CN(C)CC(c1ccc(Br)cc1)C1(O)CCCCC1 (stereo not given) |
| 190 | COc1ccc(C(CN(C)C)C2(O)CCCCC2)cc1Br (stereo not given) |
| 88 | CN(C)CC(c1ccc(C(F)(F)F)cc1)C1(O)CCCCC1 (stereo not given) |
| 700 | COc1ccc(C(CN(C)C)C2(O)CCCCC2)cc1OC (stereo not given) |
| 205 | Cc1ccc(C(CN(C)C)C2(O)CCCCC2)cc1 (stereo not given) |
| > 10000 | CN(C)CC(c1ccc(N)cc1)C1(O)CCCCC1 (stereo not given) |
| > 10000 | COc1ccc(C(CN2CCOCC2)C2(O)CCCCC2)cc1 (stereo not given) |
| > 10000 | COc1ccc(C(CN2CCCC2)C2(O)CCCCC2)cc1 (stereo not given) |
| 260 | CN(C)CC(c1ccccc1Br)C1(O)CCCCC1 (stereo not given) |
| 900 | COc1ccc(C(CN)C2(O)CCCCC2)cc1 (stereo not given) |
| > 10000 | COc1ccc(C(CN(C)C)C2(O)CCCCCCC2)cc1 (stereo not given) |
| > 10000 | COc1ccc(C(CN2CCCCC2)C2(O)CCCCC2)cc1 (stereo not given) |
| 523 | CN(C)CC(c1ccccc1Cl)C1(O)CCCCC1 (stereo not given) [1-(1-(2-chlorophenyl)-2-(dimethylamino)ethyl)cyclohexanol] |
| 150 | COc1cccc(C(CN(C)C)C2(O)CCCCC2)c1 (stereo not given) [1-(2-(dimethylamino)-1-(3-methoxyphenyl)ethyl)cyclohexanol] |
| 100 | CN(C)CC(c1ccc(Cl)cc1)C1(O)CCCCC1 (stereo not given) [1-[1-(4-Chloro-phenyl)-2-dimethylamino-ethyl]-cyclohexanol (HCl)] |
| 300 | CNCC(c1ccc(OC)cc1)C1(O)CCCCC1 (stereo not given) [N-Desmethylvenlafaxine] |

| SMILES | IC50 [nM] |
| --- | --- |
| CN(C)CC(c1ccc(Br)cc1)C1(O)CCC1 (stereo not given) | 435 |
